Measurements: PubChem BioAssay AID1963842 (Molecular Pharmacology Branch, DTP, NCI, 2024)

Tested on: 677734-321-R-J1-PDC complex spheroid viability
Assay: Anticancer human tumor 677734-321-R-J1-PDC patient-derived soft tissue sarcoma cell line growth inhibition [POLQ]
Details: for IC50: curve of first compound; for viability, T/C: stronger effect = lower value; active means viability on the fitted dose curve at most 10% of control; inactive means the rest
Outline: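 PDC + HUVEC + MSC complex spheroids; POLQ inhibitors ± partner drugs; top conc. at/near clinical Cmax, else 10 microM (SN-38 1 microM), half-log dilutions; 37 degrees C, 5% CO2.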

[1] = second compound 0.0316 µM, first compound 0.0316 µM
[2] = second compound 0.0316 µM, first compound 0.1 µM
[3] = second compound 0.0316 µM, first compound 0.316 µM
[4] = second compound 0.0316 µM, first compound 1 µM
[5] = second compound 0.0316 µM, first compound 3.16 µM
[6] = second compound 0.0316 µM, first compound 10 µM
[7] = second compound 0.1 µM, first compound 0.0316 µM
[8] = second compound 0.1 µM, first compound 0.1 µM
[9] = second compound 0.1 µM, first compound 0.316 µM
[10] = second compound 0.1 µM, first compound 1 µM
[11] = second compound 0.1 µM, first compound 3.16 µM
[12] = second compound 0.1 µM, first compound 10 µM
[13] = second compound 0.316 µM, first compound 0.0316 µM
[14] = second compound 0.316 µM, first compound 0.1 µM
[15] = second compound 0.316 µM, first compound 0.316 µM
[16] = second compound 0.316 µM, first compound 1 µM
[17] = second compound 0.316 µM, first compound 3.16 µM
[18] = second compound 0.316 µM, first compound 10 µM
[19] = second compound 1 µM, first compound 0.0316 µM
[20] = second compound 1 µM, first compound 0.1 µM
[21] = second compound 1 µM, first compound 0.316 µM
[22] = second compound 1 µM, first compound 1 µM
[23] = second compound 1 µM, first compound 3.16 µM
[24] = second compound 1 µM, first compound 10 µM
[25] = second compound 3.16 µM, first compound 0.0316 µM
[26] = second compound 3.16 µM, first compound 0.1 µM
[27] = second compound 3.16 µM, first compound 0.316 µM
[28] = second compound 3.16 µM, first compound 1 µM
[29] = second compound 3.16 µM, first compound 3.16 µM
[30] = second compound 3.16 µM, first compound 10 µM
[31] = second compound 10 µM, first compound 0.0316 µM
[32] = second compound 10 µM, first compound 0.1 µM
[33] = second compound 10 µM, first compound 0.316 µM
[34] = second compound 10 µM, first compound 1 µM
[35] = second compound 10 µM, first compound 3.16 µM
[36] = second compound 10 µM, first compound 10 µM
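Further: spheroids exposed to compounds for one week.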
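Wherever viability, T/C is given: 100% = vehicle DMSO treated spheroids.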

C#Cc1c(F)ccc2cc(O)cc(-c3ncc4c(N5CC6CCC(C5)N6)nc(OCC56CCCN5CC(F)C6)nc4c3F)c12 (stereo not given) + Nc1ccc(C#CCN(C(=O)Cc2ncc(C(F)(F)F)cc2C(F)(F)F)c2ccc(F)cc2)nn1
inactive: viability, T/C [1] 104% | viability, T/C [2] 117% | viability, T/C [3] 115% | viability, T/C [4] 117% | viability, T/C [5] 115% | viability, T/C [6] 98.7% | viability, T/C [7] 106% | viability, T/C [8] 116% | viability, T/C [9] 112% | viability, T/C [10] 118% | viability, T/C [11] 98.4% | viability, T/C [12] 79.6% | viability, T/C [13] 113% | viability, T/C [14] 124% | viability, T/C [15] 96.9% | viability, T/C [16] 110% | viability, T/C [17] 103% | viability, T/C [18] 103% | viability, T/C [19] 105% | viability, T/C [20] 104% | viability, T/C [21] 109% | viability, T/C [22] 114% | viability, T/C [23] 119% | viability, T/C [24] 94.1% | viability, T/C [25] 114% | viability, T/C [26] 98% | viability, T/C [27] 122% | viability, T/C [28] 111% | viability, T/C [29] 96.8% | viability, T/C [30] 96.5% | viability, T/C [31] 107% | viability, T/C [32] 99.8% | viability, T/C [33] 112% | viability, T/C [34] 108% | viability, T/C [35] 94.8% | viability, T/C [36] 88.8%
> 10 µM: IC50 (second compound 0.0316 µM) | IC50 (second compound 0.1 µM) | IC50 (second compound 0.316 µM) | IC50 (second compound 1 µM) | IC50 (second compound 3.16 µM) | IC50 (second compound 10 µM)

CC1COCCN1c1cc(C2(O)CC3CCC(C2)O3)c2cnn(-c3ccn[nH]3)c2n1 (stereo not given) + Nc1ccc(C#CCN(C(=O)Cc2ncc(C(F)(F)F)cc2C(F)(F)F)c2ccc(F)cc2)nn1
< 0.0316 µM: IC50 (second compound 0.0316 µM) | IC50 (second compound 0.1 µM) | IC50 (second compound 0.316 µM) | IC50 (second compound 1 µM) | IC50 (second compound 3.16 µM) | IC50 (second compound 10 µM)
active: viability, T/C [3] 7.94% | viability, T/C [4] 7.29% | viability, T/C [5] 8.37% | viability, T/C [6] 6.3% | viability, T/C [9] 10.1% | viability, T/C [10] 7.88% | viability, T/C [11] 10.1% | viability, T/C [12] 7.23% | viability, T/C [15] 8.93% | viability, T/C [16] 7.29% | viability, T/C [17] 7.85% | viability, T/C [18] 6.34% | viability, T/C [21] 8.7% | viability, T/C [22] 7.59% | viability, T/C [23] 8.26% | viability, T/C [24] 6% | viability, T/C [27] 10% | viability, T/C [28] 8.6% | viability, T/C [29] 8.2% | viability, T/C [30] 4.99% | viability, T/C [34] 10.5% | viability, T/C [35] 7.26% | viability, T/C [36] 11.5%
inactive: viability, T/C [1] 36.8% | viability, T/C [2] 20.4% | viability, T/C [7] 48.2% | viability, T/C [8] 15% | viability, T/C [13] 35.1% | viability, T/C [14] 11.7% | viability, T/C [19] 44.7% | viability, T/C [20] 15.9% | viability, T/C [25] 45.2% | viability, T/C [26] 12.9% | viability, T/C [31] 35.5% | viability, T/C [32] 26.6% | viability, T/C [33] 7.13%

CCc1cc2c(N3CCc4c(cc(Cn5ccnc5)cc4-c4cn(C)nc4C(F)(F)F)C3=O)cc(C)nc2c(OC)n1 + Nc1ccc(C#CCN(C(=O)Cc2ncc(C(F)(F)F)cc2C(F)(F)F)c2ccc(F)cc2)nn1
5.71 µM: IC50 (second compound 3.16 µM)
5.9 µM: IC50 (second compound 1 µM)
inactive: viability, T/C [1] 100% | viability, T/C [2] 101% | viability, T/C [3] 85% | viability, T/C [4] 76.3% | viability, T/C [5] 63.8% | viability, T/C [6] 61.8% | viability, T/C [7] 102% | viability, T/C [8] 94.2% | viability, T/C [9] 77.6% | viability, T/C [10] 78.5% | viability, T/C [11] 53.4% | viability, T/C [12] 45.1% | viability, T/C [13] 104% | viability, T/C [14] 93.6% | viability, T/C [15] 96.4% | viability, T/C [16] 91.2% | viability, T/C [17] 73.2% | viability, T/C [18] 42.1% | viability, T/C [19] 116% | viability, T/C [20] 88% | viability, T/C [21] 100% | viability, T/C [22] 90.1% | viability, T/C [23] 60% | viability, T/C [24] 39.1% | viability, T/C [25] 107% | viability, T/C [26] 97.3% | viability, T/C [27] 96.6% | viability, T/C [28] 95.2% | viability, T/C [29] 65% | viability, T/C [30] 35.6% | viability, T/C [31] 110% | viability, T/C [32] 88.5% | viability, T/C [33] 91.4% | viability, T/C [34] 86.5% | viability, T/C [35] 55.5% | viability, T/C [36] 29.8%
4.5 µM: IC50 (second compound 10 µM)
> 10 µM: IC50 (second compound 0.0316 µM)
7.57 µM: IC50 (second compound 0.316 µM)
6.09 µM: IC50 (second compound 0.1 µM)

COc1cc2cc(C(=O)CCC(=O)O)sc2cc1OC + Nc1ccc(C#CCN(C(=O)Cc2ncc(C(F)(F)F)cc2C(F)(F)F)c2ccc(F)cc2)nn1
> 10 µM: IC50 (second compound 0.0316 µM) | IC50 (second compound 0.1 µM) | IC50 (second compound 0.316 µM) | IC50 (second compound 1 µM) | IC50 (second compound 3.16 µM) | IC50 (second compound 10 µM)
inactive: viability, T/C [1] 105% | viability, T/C [2] 105% | viability, T/C [3] 103% | viability, T/C [4] 93.3% | viability, T/C [5] 108% | viability, T/C [6] 104% | viability, T/C [7] 103% | viability, T/C [8] 98.5% | viability, T/C [9] 100% | viability, T/C [10] 98.5% | viability, T/C [11] 115% | viability, T/C [12] 110% | viability, T/C [13] 104% | viability, T/C [14] 102% | viability, T/C [15] 103% | viability, T/C [16] 108% | viability, T/C [17] 105% | viability, T/C [18] 116% | viability, T/C [19] 105% | viability, T/C [20] 91.4% | viability, T/C [21] 105% | viability, T/C [22] 104% | viability, T/C [23] 95.2% | viability, T/C [24] 109% | viability, T/C [25] 97% | viability, T/C [26] 98.1% | viability, T/C [27] 113% | viability, T/C [28] 109% | viability, T/C [29] 109% | viability, T/C [30] 112% | viability, T/C [31] 104% | viability, T/C [32] 110% | viability, T/C [33] 94.6% | viability, T/C [34] 95% | viability, T/C [35] 107% | viability, T/C [36] 86.3%

O=C(Nc1ccc(O)c(NS(=O)(=O)c2ccc(F)cc2)c1)c1ccc(-c2ccccc2)cc1 + Nc1ccc(C#CCN(C(=O)Cc2ncc(C(F)(F)F)cc2C(F)(F)F)c2ccc(F)cc2)nn1
inactive: viability, T/C [1] 106% | viability, T/C [2] 115% | viability, T/C [3] 97% | viability, T/C [4] 106% | viability, T/C [5] 68.7% | viability, T/C [6] 21.3% | viability, T/C [7] 106% | viability, T/C [8] 102% | viability, T/C [9] 94% | viability, T/C [10] 102% | viability, T/C [11] 69.4% | viability, T/C [12] 17.1% | viability, T/C [13] 104% | viability, T/C [14] 113% | viability, T/C [15] 110% | viability, T/C [16] 103% | viability, T/C [17] 53.5% | viability, T/C [18] 22.1% | viability, T/C [19] 114% | viability, T/C [20] 109% | viability, T/C [21] 104% | viability, T/C [22] 105% | viability, T/C [23] 58.6% | viability, T/C [24] 19.4% | viability, T/C [25] 119% | viability, T/C [26] 114% | viability, T/C [27] 101% | viability, T/C [28] 111% | viability, T/C [29] 58.2% | viability, T/C [30] 19.9% | viability, T/C [31] 109% | viability, T/C [32] 115% | viability, T/C [33] 109% | viability, T/C [34] 103% | viability, T/C [35] 56.5% | viability, T/C [36] 16.5%
4.07 µM: IC50 (second compound 3.16 µM)
4.84 µM: IC50 (second compound 0.1 µM)
3.82 µM: IC50 (second compound 10 µM)
4.98 µM: IC50 (second compound 0.0316 µM)
4.08 µM: IC50 (second compound 1 µM)
3.59 µM: IC50 (second compound 0.316 µM)
